What was measured:
Type in all cases: functional
[1] = Cytotoxicity against human breast cancer cells after 48 hrs by sulphorhodamine B assay; details: Cancer cell lines
[2] = Cytotoxicity against human prostate cancer cells after 48 hrs by sulphorhodamine B assay; details: Cancer cell lines
[3] = Cytotoxicity against human ovarian cancer cells after 48 hrs by sulphorhodamine B assay; details: Cancer cell lines
[4] = Cytotoxicity against human renal cancer cells after 48 hrs by sulphorhodamine B assay; details: Cancer cell lines
[5] = Cytotoxicity against human melanoma cells after 48 hrs by sulphorhodamine B assay; details: Melanoma cell
[6] = Cytotoxicity against human CNS cancer cells after 48 hrs by sulphorhodamine B assay; details: Cancer cell lines
[7] = Cytotoxicity against human colon cancer cells after 48 hrs by sulphorhodamine B assay; details: Cancer cell lines
[8] = Cytotoxicity against human non-small cell lung cancer cells after 48 hrs by sulphorhodamine B assay; details: Cancer cell lines
[9] = Cytotoxicity against human leukemia cells after 48 hrs by sulphorhodamine B assay; details: Leukemia cell
[10] = read-out: LC50 (the source's name)

## O=c1[nH]cc(F)c(=O)[nH]1 [FLUOROURACIL]
[1]
  GI50: 76.4 µM
  TGI: > 100 µM
[2]
  GI50: 22.7 µM
  TGI: > 100 µM
[3]
  GI50: 61.4 µM
  TGI: > 100 µM
[3]; [10]
  CC50: > 100 µM
[4]
  GI50: 45.6 µM
  TGI: > 100 µM
[5]
  GI50: 70.6 µM
  TGI: > 100 µM
[5]; [10]
  CC50: > 100 µM
[6]
  TGI: > 100 µM
[7]
  GI50: 8.4 µM
  TGI: > 100 µM
[7]; [10]
  CC50: > 100 µM
[8]
  GI50: > 100 µM
  TGI: > 100 µM
[9]
  TGI: > 100 µM

— ChEMBL document CHEMBL2375313, “Synthesis, in vitro antitumor evaluation and DNA-binding study of novel tetrahydroquinolines and some derived tricyclic and tetracyclic ring systems” (Eur J Med Chem, 2013)
